{"source": "patent US10471046B2", "about": "“Method for treating, preventing, or reducing the risk of skin infection” (Melinta Subsidiary Corp., priority 2014, dated 2019)", "data": [{"tested_on": "S. aureus", "test": "Minimum inhibitory concentrations (MICs) for S. aureus of exemplary compounds (Table 2)", "assay_type": "cell-based", "conditions": "Staphylococcus aureus, minimum inhibitory concentrations for S. aureus; read-out: MICs", "outline": "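MICs (μg/mL) against S. aureus come from microtiter-tray dilution susceptibility testing per NCCLS M7-A5, comparing growth with and without compound.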", "units": {"MIC": "µg/mL"}, "values": [{"compound": "CC(=O)NC[C@H]1CN(c2ccc(-c3ccc(CNCc4cnoc4)cc3)c(F)c2)C(=O)O1", "note": "[Compound 4038, N-[3-(2-Fluoro-4′-{[(isoxazol-4-ylmethyl)-amino]-methyl}-biphenyl-4-yl)-2-oxo-oxazolidin-5-(S)-ylmethyl]-acetamide]", "MIC": 0.25}, {"compound": "CC(=O)NC[C@H]1CN(c2ccc(-c3ccc(Cn4nnc5c(=O)[nH]cnc54)cc3)c(F)c2)C(=O)O1", "note": "[Compound 1027, N-{3-[2-Fluoro-4′-(7-oxo-6,7-dihydro-[1,2,3]triazolo[4,5-d]pyrimidin-3-ylmethyl)-biphenyl-4-yl]-2-oxo-oxazolidin-5-(S)-ylmethyl}-acetamide]", "MIC": 1}, {"compound": "CC(=O)NC[C@H]1CN(c2ccc(-c3ccc(NC(=O)Nc4ccncc4)cc3)c(F)c2)C(=O)O1", "note": "[Compound 6006, N-{3-[2-Fluoro-4′-(3-pyridin-4-yl-ureido)-biphenyl-4-yl]-2-oxo-oxazolidin-5-(S)-ylmethyl}-acetamide]", "MIC": 128}, {"compound": "CC(=O)NC[C@H]1CN(c2ccc(-c3ccc(CNCCCc4cn(Cc5ccccc5)nn4)cc3)c(F)c2)C(=O)O1", "note": "[Compound 4256, N-[3-(4′-{[3-(1-Benzyl-1H-[1,2,3]triazol-4-yl)-propylamino]-methyl}-2-fluoro-biphenyl-4-yl)-2-oxo-oxazolidin-5-(S)-ylmethyl]-acetamide]", "MIC": 4}, {"compound": "CC(=O)NC[C@H]1CN(c2ccc(-c3ccc(CNC(=O)C4CC4)cc3)c(F)c2)C(=O)O1", "note": "[Compound 4319, Cyclopropanecarboxylic acid {4′-[5-(S)-(acetylamino-methyl)-2-oxo-oxazolidin-3-yl]-2′-fluoro-biphenyl-4-ylmethyl}-amide]", "MIC": 16}, {"compound": "CC(=O)NC[C@H]1CN(c2ccc(-c3ccc(CN4CC[C@H](O)C4)cc3)c(F)c2)C(=O)O1", "note": "[Compound 1087, N-{3-[2-Fluoro-4′-(3-(S)-hydroxy-pyrrolidin-1-ylmethyl)-biphenyl-4-yl]-2-oxo-oxazolidin-5-(S)-ylmethyl}-acetamide]", "MIC": 4}, {"compound": "CC(=O)NC[C@H]1CN(c2ccc(-c3ccc(CN(Cc4csnn4)C(C)=O)cc3)c(F)c2)C(=O)O1", "note": "[Compound 4204, N-(3-{4′-[(Acetyl-[1,2,3]thiadiazol-4-ylmethyl-amino)-methyl]-2-fluoro-biphenyl-4-yl}-2-oxo-oxazolidin-5-(S)-ylmethyl)-acetamide]", "MIC": 2}, {"compound": "CC(=O)NC[C@H]1CN(c2ccc(-c3ccc(Cn4cnc5c(NCC(F)F)ncnc54)cc3)c(F)c2)C(=O)O1", "note": "[Compound 1103, N-(3-{4′-[6-(2,2-Difluoro-ethylamino)-purin-9-ylmethyl]-2-fluoro-biphenyl-4-yl}-2-oxo-oxazolidin-5-(S)-ylmethyl)-acetamide]", "MIC": 1}, {"compound": "CC(=O)NC[C@H]1CN(c2ccc(-c3ccc(CN(Cc4csnn4)C(N)=O)cc3)c(F)c2)C(=O)O1", "note": "[Compound 4299, N-{3-[2-Fluoro-4′-(1-[1,2,3]thiadiazol-4-ylmethyl-ureidomethyl)-biphenyl-4-yl]-2-oxo-oxazolidin-5-(S)-ylmethyl}-acetamide]", "MIC": 2}, {"compound": "CC(=O)NC[C@H]1CN(c2ccc(-c3ccc([C@@H](CO)NCc4cocn4)cc3)c(F)c2)C(=O)O1", "note": "[Compound 4200, N-[3-(2-Fluoro-4′-{2-hydroxy-1-(S)-[(oxazol-4-ylmethyl)-amino]-ethyl}-biphenyl-4-yl)-2-oxo-oxazolidin-5-(S)-ylmethyl]-acetamide]", "MIC": 4}, {"compound": "CC(=O)NC[C@H]1CN(c2ccc(-c3ccc(CCSc4cnn[nH]4)cc3)c(F)c2)C(=O)O1", "note": "[Compound 2026, N-(3-{2-Fluoro-4′-[2-(3H-[1,2,3]triazol-4-ylsulfanyl)-ethyl]-biphenyl-4-yl}-2-oxo-oxazolidin-5-(S)-ylmethyl)-acetamide]", "MIC": 0.25}, {"compound": "COc1ccc2[nH]c(C(=O)NCc3ccc(-c4ccc(N5C[C@H](CNC(C)=O)OC5=O)cc4F)cc3)cc2c1", "note": "[Compound 4015, 5-Methoxy-1H-indole-2-carboxylic acid {4′-[5-(S)-(acetylamino-methyl)-2-oxo-oxazolidin-3-yl]-2′-fluoro-biphenyl-4-ylmethyl}-amide]", "MIC": 4}, {"compound": "CC(=O)NC[C@H]1CN(c2ccc(-c3ccc(CNCC(=O)N4CCNCC4)cc3)c(F)c2)C(=O)O1", "note": "[Compound 4314, N-(3-{2-Fluoro-4′-[(2-oxo-2-piperazin-1-yl-ethylamino)-methyl]-biphenyl-4-yl}-2-oxo-oxazolidin-5-(S)-ylmethyl)-acetamide]", "MIC": 4}, {"compound": "CC(=O)NC[C@H]1CN(c2ccc(-c3ccc(CNCc4nc5ccccc5s4)cc3)c(F)c2)C(=O)O1", "note": "[Compound 4121, N-[3-(4′-{[(Benzothiazol-2-ylmethyl)-amino]-methyl}-2-fluoro-biphenyl-4-yl)-2-oxo-oxazolidin-5-(S)-ylmethyl]-acetamide]", "MIC": 0.5}, {"compound": "CC(=O)NC[C@H]1CN(c2ccc(-c3ccc(CN4CCN(CC(N)=O)CC4)cc3)c(F)c2)C(=O)O1", "note": "[Compound 1003, 2-(4-{4′-[5-(S)-(Acetylamino-methyl)-2-oxo-oxazolidin-3-yl]-2′-fluoro-biphenyl-4-ylmethyl}-piperazin-1-yl)-acetamide]", "MIC": 2}, {"compound": "COc1ccc2[nH]cc(CNCc3ccc(-c4ccc(N5C[C@H](CNC(C)=O)OC5=O)cc4F)cc3)c2c1", "note": "[Compound 4098, N-[3-(2-Fluoro-4′-{[(5-methoxy-1H-indol-3-ylmethyl)-amino]-methyl}-biphenyl-4-yl)-2-oxo-oxazolidin-5-(S)-ylmethyl]-acetamide]", "MIC": 2}, {"compound": "CC(=O)NC[C@H]1CN(c2ccc(-c3ccc(Cn4cc(C)cn4)cc3)c(F)c2)C(=O)O1", "note": "[Compound 1052, N-{3-[2-Fluoro-4′-(4-methyl-pyrazol-1-ylmethyl)-biphenyl-4-yl]-2-oxo-oxazolidin-5-(S)-ylmethyl}-acetamide]", "MIC": 1}, {"compound": "CO/N=C(\\CNCc1cnoc1)c1ccc(-c2ccc(N3C[C@H](CNC(C)=O)OC3=O)cc2F)cc1", "note": "[Compound 4254, N-[3-(2-Fluoro-4′-{2-[(isoxazol-4-ylmethyl)-amino]-1-methoxyimino-ethyl}-biphenyl-4-yl)-2-oxo-oxazolidin-5-(S)-ylmethyl]-acetamide]", "MIC": 2}, {"compound": "O=C1O[C@@H](Cn2ccnn2)CN1c1ccc(-c2ccc(CNCCSc3cnn[nH]3)cc2)c(F)c1", "note": "[Compound 5007, 3-(2-Fluoro-4′-{[2-(3H-[1,2,3]triazol-4-ylsulfanyl)-ethylamino]-methyl}-biphenyl-4-yl)-5-(R)-[1,2,3]triazol-1-ylmethyl-oxazolidin-2-one]", "MIC": 0.25}, {"compound": "CC(=O)NC[C@H]1CN(c2ccc(-c3ccc(CNS(=O)(=O)c4cn(C)cn4)cc3)c(F)c2)C(=O)O1", "note": "[Compound 2043, N-(3-{2-Fluoro-4′-[(1-methyl-1H-imidazole-4-sulfonylamino)-methyl]-biphenyl-4-yl}-2-oxo-oxazolidin-5-(S)-ylmethyl)-acetamide]", "MIC": 2}, {"compound": "CC(=O)NC[C@H]1CN(c2ccc(-c3ccc(CNC(=O)Nc4cccc(F)c4)cc3)c(F)c2)C(=O)O1", "note": "[Compound 5013, N-(3-{2-Fluoro-4′-[3-(3-fluoro-phenyl)-ureidomethyl]-biphenyl-4-yl}-2-oxo-oxazolidin-5-(S)-ylmethyl)-acetamide]", "MIC": 32}, {"compound": "CC(=O)NC[C@H]1CN(c2ccc(-c3ccc(Cn4ccnc4N)cc3)c(F)c2)C(=O)O1", "note": "[Compound 1113, N-{3-[4′-(2-Amino-imidazol-1-ylmethyl)-2-fluoro-biphenyl-4-yl]-2-oxo-oxazolidin-5-(S)-ylmethyl}-acetamide]", "MIC": 2}, {"compound": "CC(=O)NC[C@H]1CN(c2ccc(-c3ccc(CNCc4ccncc4)cn3)c(F)c2)C(=O)O1", "note": "[Compound 4052, N-{3-[3-Fluoro-4-(5-{[(pyridin-4-ylmethyl)-amino]-methyl}-pyridin-2-yl)-phenyl]-2-oxo-oxazolidin-5-(S)-ylmethyl}-acetamide]", "MIC": 64}, {"compound": "CC(=O)NC[C@H]1CN(c2ccc(-c3ccc(CN(Cc4c[nH]cn4)Cc4cnc[nH]4)cc3)c(F)c2)C(=O)O1", "note": "[Compound 4068, N-[3-(2-Fluoro-4′-{[(1H-imidazol-4-ylmethyl)-(3H-imidazol-4-ylmethyl)-amino]-methyl}-biphenyl-4-yl)-2-oxo-oxazolidin-5-(S)-ylmethyl]-acetamide]", "MIC": 128}, {"compound": "CC(=O)NC[C@H]1CN(c2ccc(-c3ccc(CNC(=O)c4csc(C)n4)cc3)c(F)c2)C(=O)O1", "note": "[Compound 4242, 2-Methyl-thiazole-4-carboxylic acid {4′-[5-(S)-(acetylamino-methyl)-2-oxo-oxazolidin-3-yl]-2′-fluoro-biphenyl-4-ylmethyl}-amide]", "MIC": 2}, {"compound": "CC(=O)NC[C@H]1CN(c2ccc(-c3ccc(CNC(=O)Cn4cc(CO)nn4)cc3)c(F)c2)C(=O)O1", "note": "[Compound 4240, N-{4′-[5-(S)-(Acetylamino-methyl)-2-oxo-oxazolidin-3-yl]-2′-fluoro-biphenyl-4-ylmethyl}-2-(4-hydroxymethyl-[1,2,3]triazol-1-yl)-acetamide]", "MIC": 16}, {"compound": "CC(=O)NC[C@H]1CN(c2ccc(-c3ccc(CNCCN4CCCC4)cc3)c(F)c2)C(=O)O1", "note": "[Compound 4259, N-(3-{2-Fluoro-4′-[(2-pyrrolidin-1-yl-ethylamino)-methyl]-biphenyl-4-yl}-2-oxo-oxazolidin-5-(S)-ylmethyl)-acetamide]", "MIC": 4}, {"compound": "CC(=O)NC[C@H]1CN(c2ccc(-c3ccc(CNCc4sc(C)nc4C)cc3)c(F)c2)C(=O)O1", "note": "[Compound 4108, N-[3-(4′-{[(2,4-Dimethyl-thiazol-5-ylmethyl)-amino]-methyl}-2-fluoro-biphenyl-4-yl)-2-oxo-oxazolidin-5-(S)-ylmethyl]-acetamide]", "MIC": 4}, {"compound": "CC(=O)NC[C@H]1CN(c2ccc(-c3ccc(CNC(=O)[C@@H](N)Cc4ccccn4)cc3)c(F)c2)C(=O)O1", "note": "[Compound 4302, N-{4′-[5-(S)-(Acetylamino-methyl)-2-oxo-oxazolidin-3-yl]-2′-fluoro-biphenyl-4-ylmethyl}-2-(S)-amino-3-pyridin-2-yl-propionamide]", "MIC": 8}, {"compound": "CC(=O)NC[C@H]1CN(c2ccc(-c3ccc(C[S+]([O-])c4nnnn4C)cc3)c(F)c2)C(=O)O1", "note": "(stereo partly drawn) [Compound 2020, N-{3-[2-Fluoro-4′-(1-methyl-1H-tetrazole-5-sulfinylmethyl)-biphenyl-4-yl]-2-oxo-oxazolidin-5-(S)-ylmethyl}-acetamide]", "MIC": 0.25}]}]}
